Assay: Inhibition of influenza A virus RNA-dependent RNA polymerase subunit PA endonuclease activity

| Structure (SMILES) | pIC50 |
| --- | --- |
| O=C(Nc1ccccc1)Nc1ccc2c(C(=O)c3ccccc3)c(O)n(O)c2c1 | 4.54 |
| CC(C)/C=C1\N=C(CC(C)C)C(=O)N(O)C1=O | 5.26 |
| CC(=O)c1c(O)n(O)c2cc(NC(=O)c3ccc4ccccc4c3)ccc12 | 5.05 |
| CC(C)CC1=N/C(=C\c2ccc(F)cc2)C(=O)N(O)C1=O | 6.05 |
| CCC(=O)c1c(O)n(O)c2cc(NC(=O)Nc3ccccc3Cl)ccc12 | 4.3 |
| OC(CN1CCCCC1)Cn1c2c(c3ccccc31)CCCC2 (stereo unspecified) | 4.44 |
| O=C(O)/C(O)=C/C(=O)C1(Cc2ccc(Cl)cc2)CCN(Cc2ccc(Cl)cc2)CC1 | 6.27 |
| O=C(O)/C(O)=C/C(=O)C1(Cc2ccc(Cl)cc2)CCCN(Cc2ccccc2)C1 (stereo unspecified) | 5.96 |
| CC(C)CC1=N/C(=C\c2ccccc2)C(=O)N(O)C1=O | 5.32 |
| COc1ccc(/C=C2\N=C(CC(C)C)C(=O)N(O)C2=O)cc1 | 6.1 |
| COc1ccc(/C=C2\N=C(Cc3ccccc3)C(=O)N(O)C2=O)cc1 | 5.55 |
| O=C1C(Cc2ccccc2)=N/C(=C\c2ccc(F)cc2)C(=O)N1O | 5.46 |
| O=C1C(Cc2ccc(F)cc2)=N/C(=C\c2ccccc2)C(=O)N1O | 5.19 |
| O=C(O)/C(O)=C/C(=O)C1(Cc2ccc(Cl)cc2)CCCN(S(=O)(=O)Cc2ccccc2)C1 (stereo unspecified) | 6.72 |
| CCC(=O)c1c(O)n(O)c2cc(NC(=O)Nc3ccc(Cl)cc3)ccc12 | 4.42 |
| O=C(Nc1ccc2c(C(=O)c3ccccc3)c(O)n(O)c2c1)NC1CCCCC1 | 4.3 |
| O=C(Nc1ccc2c(c1)N(O)C(=O)/C2=C(\O)c1ccccc1)c1ccc2ccccc2c1 | 5.1 |
| C/C(O)=C1/C(=O)N(O)c2cc(NC(=O)c3cccs3)ccc21 | 4.4 |

| Structure (SMILES) | pIC50 |
| --- | --- |
| C/C(O)=C1/C(=O)N(O)c2cc(NC(=O)/C=C/c3ccccc3Cl)ccc21 | 4.59 |
| O=C(Nc1ccc2c(c1)N(O)C(=O)/C2=C(\O)c1ccccc1)c1cnc2ccccc2n1 | 4.77 |
| O=C(/C=C/c1ccccc1Cl)Nc1ccc2c(c1)N(O)C(=O)/C2=C(\O)c1ccccc1 | 5.02 |
| Cc1nc(NCC(=O)O)sc1S(=O)(=O)Nc1ccc2c(c1)N(O)C(=O)/C2=C(\O)c1ccccc1 | 4.49 |
| CC/C(O)=C1/C(=O)N(O)c2cc(NC(=O)Nc3ccccc3)ccc21 | 4.4 |
| CC/C(O)=C1/C(=O)N(O)c2cc(NC(=O)c3cnc4ccccc4n3)ccc21 | 5 |
| CC/C(O)=C1/C(=O)N(O)c2cc(NC(=O)/C=C/c3ccccc3Cl)ccc21 | 5.1 |
| O=C(Nc1ccc2c(c1)N(O)C(=O)/C2=C(\O)c1ccccc1)c1ccccc1 | 5 |
| C/C(O)=C1/C(=O)N(O)c2cc(NC(=O)c3cnc4ccccc4n3)ccc21 | 4.96 |
| Cc1cc(C(=O)Nc2ccc3c(c2)N(O)C(=O)/C3=C(\O)c2ccccc2)no1 | 5.02 |
| O=C(Nc1ccc2c(c1)N(O)C(=O)/C2=C(\O)c1ccccc1)c1cccs1 | 4.7 |
| O=C(Nc1ccc2c(c1)N(O)C(=O)/C2=C(\O)c1ccccc1)c1ccc(Cl)cc1Cl | 4.42 |
| O=C1/C(=C(\O)c2ccccc2)c2ccc(NS(=O)(=O)c3cccs3)cc2N1O | 4.32 |
| O=C(Nc1ccc2c(c1)N(O)C(=O)/C2=C(\O)c1ccccc1)C1CCCCC1 | 4.75 |
| CC/C(O)=C1/C(=O)N(O)c2cc(NC(=O)c3cccs3)ccc21 | 4.46 |
| CC/C(O)=C1/C(=O)N(O)c2cc(NC(=O)Nc3cccc(C(=O)O)c3)ccc21 | 5 |
| CC(=O)c1c(O)n(O)c2cc(NC(=O)Nc3cccc(C(=O)O)c3)ccc12 | 4.85 |
| CCC(=O)c1c(O)n(O)c2cc(NC(=O)c3ccc(Cl)cc3Cl)ccc12 | 4.35 |

Reference: ChEMBL document CHEMBL3102778, “Design of the influenza virus inhibitors targeting the PA endonuclease using 3D-QSAR modeling, side-chain hopping, and docking” (Bioorg Med Chem Lett, 2014)
